The test system of one assay is Corticium sasakii. Conditions: rice cultivar Tai-Nong 67, protective spray, evaluated after 11 days.
For the next assay, the system named is Plasmopara viticola. The assay can be described thus: Activity against Peronospora of grapevines caused by Plasmopara viticola. Conditions: vines cultivar Riesling, protective spray.

Where two headings read alike, the source gives them in different places.

Experimental for Corticium sasakii: (§1) 1% by weight of the emulsifier Uniperol® EL (wetting agent having emulsifying and dispersant action based on ethoxylated alkylphenols) was added to this solution, and the mixture was diluted with water to the desired concentration.
(§2) Evaluation is carried out by determining the infected leaf areas in percent. These percentages were converted into efficacies.
(§3) The efficacy (E) is calculated as follows using Abbot's formula:
(§4) α corresponds to the fungicidal infection of the treated plants in % and β corresponds to the fungicidal infection of the untreated (control) plants in %
(§5) An efficacy of 0 means that the infection level of the treated plants corresponds to that of the untreated control plants; an efficacy of 100 means that the treated plants are not infected.
The next day, oat grains infected with Corticium sasakii were placed into the pots (in each case 5 grains per pot). The plants were then placed in a chamber at 26° C. and maximum atmospheric humidity.
Experimental for Plasmopara viticola: as §1, §2, §3, §4, §5
The next day, the undersides of the leaves were inoculated with an aqueous zoospore suspension of Plasmopara viticola. The grapevines were then initially placed in a water-vapor-saturated chamber at 24° C. for 48 hours and then in a greenhouse at 20-30° C. for 5 days. After this period of time, the plants were again placed in a humid chamber for 16 hours to promote sporangiophore eruption. The extent of the development of the disease on the undersides of the leaves was then determined visually.

Regarding `CO/N=C(/C1=NOCCO1)c1ccccc1Oc1ncnc(Oc2ccccc2Cl)c1F` [II (fluoxastrobin), {2-[6-(2-chlorophenoxy)-5-fluoropyrimidin-4-yloxy]phenyl}-(5,6-dihydro-[1,4,2]dioxazin-3-yl)methanon O-methyl oxime], the “Efficacy in % of the untreated control” value in the assay on Corticium sasakii (1 ppm in the spray liquor) worked out at 0%; in the assay with Corticium sasakii (16 ppm in the spray liquor), 18%; in the assay with Plasmopara viticola (4 ppm in the spray liquor), 21%; in the assay with Plasmopara viticola (16 ppm in the spray liquor) it was 55%.
With `CC1CCN(c2c(-c3c(F)cc(F)cc3F)c(Cl)nc3ncnn23)CC1` [I, 5-chloro-7-(4-methylpiperidin-1-yl)-6-(2,4,6-trifluorophenyl)-[1,2,4]triazolo[1,5-a]pyrimidine], the “Efficacy in % of the untreated control” value with Corticium sasakii (4 ppm in the spray liquor) is 30%; in the assay on Plasmopara viticola (4 ppm in the spray liquor) it was 21%; with Plasmopara viticola (16 ppm in the spray liquor), 44%.

Values taken from patent US20080064692A1.
